# From ChEMBL document CHEMBL1128625, “Synthesis and antibacterial activity of cephalosporins having C-3 catechol-containing (pyridinium-4-thio)-methyl groups” (1995)
# Tests used:
# Escherichia coli = experiment: In vitro antibacterial activity against Escherichia coli NIHJ JC-2 bacteria; assay type: functional
# Staphylococcus aureus = experiment: In vitro antibacterial activity against Staphylococcus aureus FDA 209P bacteria; assay type: functional
# Pseudomonas aeruginosa [1] = experiment: In vitro antibacterial activity against Pseudomonas aeruginosa NCTC-10490 bacteria; assay type: functional
# Pseudomonas aeruginosa [2] = experiment: In vitro antibacterial activity against Pseudomonas aeruginosa ATCC 10145 bacteria; assay type: functional
# Pseudomonas aeruginosa [3] = experiment: In vivo therapeutic efficacy against systemic infections in mice using Pseudomonas aeruginosa E-2 as a test organism
# Mus musculus [4] = species: Mus musculus; experiment: Challenged dose in mouse infected with Pseudomonas aeruginosa E-2; assay type: functional
# Mus musculus [5] = experiment: In vivo therapeutic efficacy against systemic infections in mice using Pseudomonas aeruginosa E-2 as a test organism; assay type: functional
# Mus musculus [6] = experiment: In vivo therapeutic efficacy against systemic infections in mice using Pseudomonas aeruginosa E-2 as a test organism.; assay type: functional
Structure (SMILES),MIC (Escherichia coli),MIC (Staphylococcus aureus),MIC (Pseudomonas aeruginosa [1]),MIC (Pseudomonas aeruginosa [2]),MIC (Pseudomonas aeruginosa [3]),Challenge dose (Mus musculus [4]),ED50 (Mus musculus [5]),ED50 (Mus musculus [6]),MIC (Mus musculus [6])
CC(C)(O/N=C(\C(=O)N[C@@H]1C(=O)N2C(C(=O)[O-])=C(CSc3cc[n+](Cc4cc(O)c(O)cn4)cc3)CS[C@H]12)c1csc(N)n1)C(=O)O,0.78 µg/mL,6.25 µg/mL,0.05 µg/mL,0.39 µg/mL,–,–,–,–,–
CC(C)(O/N=C(\C(=O)N[C@@H]1C(=O)N2C(C(=O)[O-])=C(C[n+]3ccccc3)CS[C@H]12)c1csc(N)n1)C(=O)O [CEFTAZIDIME],0.39 µg/mL,3.13 µg/mL,0.78 µg/mL,1.56 µg/mL,–,1000000 cells mouse-1,–,34.4 mg/kg,1.56 µg/mL

# Compounds with a lower MIC (Escherichia coli), results first:
MIC (Escherichia coli),MIC (Staphylococcus aureus),MIC (Pseudomonas aeruginosa [1]),MIC (Pseudomonas aeruginosa [2]),MIC (Pseudomonas aeruginosa [3]),Structure (SMILES),Challenge dose (Mus musculus [4]),ED50 (Mus musculus [5]),ED50 (Mus musculus [6]),MIC (Mus musculus [6])
0.1 µg/mL,3.13 µg/mL,≤ 0.025 µg/mL,0.05 µg/mL,–,CC(C)(O/N=C(\C(=O)N[C@@H]1C(=O)N2C(C(=O)[O-])=C(CSc3cc[n+](CC(=O)c4ccc(O)c(O)c4)cc3)CS[C@H]12)c1csc(N)n1)C(=O)O,–,–,–,–
0.05 µg/mL,3.13 µg/mL,≤ 0.025 µg/mL,0.1 µg/mL,0.1 µg/mL,Nc1nc(/C(=N/OCC(=O)O)C(=O)N[C@@H]2C(=O)N3C(C(=O)[O-])=C(CSc4cc[n+](CC(=O)c5ccc(O)c(O)c5)cc4)CS[C@H]23)cs1,1000000 cells mouse-1,> 20 mg/kg,–,–
0.1 µg/mL,0.78 µg/mL,0.05 µg/mL,0.39 µg/mL,–,CO/N=C(\C(=O)N[C@@H]1C(=O)N2C(C(=O)[O-])=C(CSc3cc[n+](CC(=O)c4ccc(O)c(O)c4)cc3)CS[C@H]12)c1csc(N)n1,–,–,–,–
